From patent publication US11357651B2, “Stent assembly and method of preparing the stent assembly” (Nanyang Technological University, priority 2015, dated 2022)

Test system: human bladder stroma fibroblasts
Assay: Cell work: fibroblast viability (prestoblue) after mitomycin C treatment
Type: cell-based
Conditions: 3 days of drug treatment
Protocol: FIGS. 13(A) and (B) are graphs showing (A) relative cell count vs MMC concentrations (μg/mL), and (B) dose-response curve.
In each well of a 96 well cell culture plate, 3000 human bladder stroma fibroblasts cells are seeded. After one day of seeding, different concentrations of mitomycin C dissolved in cell media (200 μL) were added to the well. After 3 days of drug treatment, the drug media was removed and the well added with 70 μL of a cell viability reagent, prestoblue, in the ratio of 9:1 (cell media: prestoblue).

With `CO[C@@]12[C@H](COC(N)=O)C3=C(C(=O)C(C)=C(N)C3=O)N1C[C@@H]1N[C@@H]12` [MMC, mitomycin C] the GI50 was “about 0.115 μg/mL” and the “minimum concentration of MMC required to cause death of / inhibit proliferation of fibroblasts” value was 0.01 µg/mL.
